# Measured values as given in patent US7378391B2, “Cyclosporin alkyne analogues and their pharmaceutical uses” (AMR Technology, Inc., priority 2004, dated 2008).
# Key:
# [1] = tested on: concanavalin A (ConA)-stimulated murine splenocytes; assay: Concanavalin A-stimulated splenocyte assay ([3H]thymidine incorporation); format: cell-based, BALB/c mice; details: for IC50: immunosuppressive activity of the novel cyclosporin alkyne analogue compound
# Experimental: Male BALB/c mice, at 5 to 7 weeks of age, were sacrificed by CO2 inhalation. Spleens were removed and dissociated by pushing through a nylon cell strainer. The splenocytes were washed in RPMI 1640/5% fetal calf serum (FCS) and pelleted at 400×g. Red blood cells were then lysed by resuspending the cell pellet in ACK lysis buffer (150 mM NH4Cl, 1 mM KHCO3, 0.1 mM EDTA, 3 mL per spleen) for 10 min at room temperature. After pelleting at 400×g, the cells were washed by resuspending in RPMI 1640/5% FCS and repelleting. The cell pellet was resuspended in RPMI 1640/5% FCS and again passed through a cell strainer to remove cell aggregates. The cells were then counted and adjusted to 2×10^6 cells/ml in RPMI 1640/10% FCS/50 μM 2-mercaptoethanol. Cell viability was assessed by Trypan blue staining. […] The cells were cultured in a 37° C. CO2 incubator for 2 days and then pulsed with 1 μCi of [^3H]thymidine for 6 hours. Cells were harvested onto filtermats with a TomTec 96 well plate harvester and lysed with H2O. The filtermat and scintillation fluid were sealed in a plastic sleeve. [^3H]thymidine incorporation was measured with a Wallac Trilux plate counter. Initial screens were done at a fixed value of 100 ng/ml test compound. IC50s were calculated from 7 point concentration-response curves using GraphPad software.
# [2] = literature value, Rich et al.; cited from earlier work
Structure (SMILES),IC50 [1],"immunosuppressive activity (as determined by IC50) relative to ISATX247 ([1]; FIG. 1, compared to ISATX247)","immunosuppressive activity (as determined by IC50) relative to cyclosporin A ([1]; FIG. 1, compared to cyclosporin A)",potency in immunosuppression compared to cyclosporin A and ISATX247 ([1]; FIG. 1 legend),relative immunosuppressive activity compared to cyclosporin A [2]
"CCC1NC(=O)C(C(O)C(C)CC=CC#CBr)N(C)C(=O)C(C(C)C)N(C)C(=O)C(CC(C)C)N(C)C(=O)C(CC(C)C)N(C)C(=O)C(C)NC(=O)C(C)NC(=O)C(CC(C)C)N(C)C(=O)C(C(C)C)NC(=O)C(CC(C)C)N(C)C(=O)CN(C)C1=O (stereo not shown) [Example 15, cyclosporin alkynyl bromide]",8 ng/mL,,,,
"CC[C@@H]1NC(=O)[C@H]([C@H](O)[C@H](C)C/C=C/C#CC2CC2)N(C)C(=O)[C@H](C(C)C)N(C)C(=O)[C@H](CC(C)C)N(C)C(=O)[C@H](CC(C)C)N(C)C(=O)[C@@H](C)NC(=O)[C@H](C)NC(=O)[C@H](CC(C)C)N(C)C(=O)[C@H](C(C)C)NC(=O)[C@H](CC(C)C)N(C)C(=O)CN(C)C1=O [Example 33, cyclosporin cyclopropyl alkyne]",9 ng/mL,equipotent,up to two times more active,enhanced or similar potency,
CC#CC[C@@H](C)[C@@H](O)[C@H]1C(=O)N[C@@H](CC)C(=O)N(C)CC(=O)N(C)[C@@H](CC(C)C)C(=O)N[C@@H](C(C)C)C(=O)N(C)[C@@H](CC(C)C)C(=O)N[C@@H](C)C(=O)N[C@H](C)C(=O)N(C)[C@@H](CC(C)C)C(=O)N(C)[C@@H](CC(C)C)C(=O)N(C)[C@@H](C(C)C)C(=O)N1C [known cyclosporin alkyne],,,,,10%
"CCC1NC(=O)C(C(O)C(C)CC=CC#CI)N(C)C(=O)C(C(C)C)N(C)C(=O)C(CC(C)C)N(C)C(=O)C(CC(C)C)N(C)C(=O)C(C)NC(=O)C(C)NC(=O)C(CC(C)C)N(C)C(=O)C(C(C)C)NC(=O)C(CC(C)C)N(C)C(=O)CN(C)C1=O (stereo not shown) [Example 13, cyclosporin alkynyl iodide]",1 ng/mL,,,,
